molecular target: T1, androgen receptor (AR) (Homo sapiens, UniProt P10275, T878A); assay: Androgen-induced PSA (6.1 kb)-luciferase reporter assay in LNCaP cells (R1881 1 nM); type: cell-based; set-up: endogenous in cells; host or cells: LNCaP; details: 24 h, read-out: PSA-Luc IC50 Range
T1 sequence (P10275 1-920 T878A): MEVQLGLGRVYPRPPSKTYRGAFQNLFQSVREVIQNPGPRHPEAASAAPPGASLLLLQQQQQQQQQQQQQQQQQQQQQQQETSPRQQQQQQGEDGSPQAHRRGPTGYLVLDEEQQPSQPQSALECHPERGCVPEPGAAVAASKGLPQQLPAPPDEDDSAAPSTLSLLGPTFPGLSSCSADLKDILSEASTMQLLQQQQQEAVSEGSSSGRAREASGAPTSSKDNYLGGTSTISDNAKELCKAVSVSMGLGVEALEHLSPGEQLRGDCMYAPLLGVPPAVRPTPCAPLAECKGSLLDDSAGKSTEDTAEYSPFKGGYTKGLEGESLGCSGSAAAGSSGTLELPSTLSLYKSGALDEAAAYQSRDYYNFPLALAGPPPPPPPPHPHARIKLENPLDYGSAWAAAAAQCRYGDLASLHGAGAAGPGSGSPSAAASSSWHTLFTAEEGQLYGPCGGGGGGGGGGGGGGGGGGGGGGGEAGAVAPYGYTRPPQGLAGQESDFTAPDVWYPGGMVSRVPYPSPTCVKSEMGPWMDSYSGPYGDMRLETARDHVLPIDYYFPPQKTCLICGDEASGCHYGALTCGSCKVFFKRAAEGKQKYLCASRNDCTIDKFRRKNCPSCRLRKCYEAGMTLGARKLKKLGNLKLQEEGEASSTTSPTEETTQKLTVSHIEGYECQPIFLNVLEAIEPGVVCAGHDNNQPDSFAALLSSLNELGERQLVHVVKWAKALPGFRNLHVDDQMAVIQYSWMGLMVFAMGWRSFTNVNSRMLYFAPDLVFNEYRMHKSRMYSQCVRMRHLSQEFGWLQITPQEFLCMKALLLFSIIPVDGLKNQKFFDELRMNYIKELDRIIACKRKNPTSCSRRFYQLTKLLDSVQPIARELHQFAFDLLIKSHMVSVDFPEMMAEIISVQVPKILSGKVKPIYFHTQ
Procedure: The PSA (6.1 kb)-luciferase reporter contains functional AREs (androgen response elements) to which AR binds in response to androgen to induce luciferase activity. LNCaP cells were transiently transfected with the PSA (6.1 kb)-luciferase reporter for 24 h, and then pretreated with vehicle (DMSO) or indicated concentration of representative compounds for one hour prior to the addition of synthetic androgen, R1881 (1 nM). After 24 h of incubation with R1881, the cells were harvested, and relative luciferase activities were determined (FIG. 1). To determine the IC50, treatments were normalized to vehicle control activity induced by R1881 (Table 2).
Luciferase Assay: Cells were lysed using Passive Lysis Buffer (Promega) and then collected into V-bottom 96-well tissue culture plates. Lysates were centrifuged at 4° C. for 5 minutes at 3000 rpm. To measure luminescence of LNCaP cell lysates the Firefly Luciferase Assay System (Promega) was employed, according to manufacturer's protocol. Relative luminescence units (RLU) in cell lysates were detected for 10 seconds using Promega GloMax-Multi Detection Luminometer (Promega). Values were normalized to protein content. GraphPad Prism graphing software was used to calculate IC50 values.
Statistical analyses were performed using GraphPad Prism (Version 6.01 for Windows; La Jolla, Calif., USA). Comparisons between treatment and control groups were compared using Two-Way ANOVA with post-hoc Dunnett's and Tukey's tests. Differences were considered statistically significant at P values less than 0.05.

SMILES	IC50 [nM]
CS(=O)(=O)NC1CC2(C1)CN(Cc1ccc3c(ccn3-c3cc(Cl)c(OCCCl)c(C#N)c3)c1)C2 [Compound A171]	> 2000
CCC(O)COc1c(Cl)cc(C(C)(C)c2ccc(OCc3ccnc(NS(C)(=O)=O)n3)cc2)cc1C#N (centres unmarked) [Compound A174]	> 2000
CCNc1ncc2cc(-c3ccc(C(C)(C)c4cc(Cl)c(OCCCl)c(C#N)c4)cc3)ccc2n1 [Compound A176]	> 2000
CC(C)(c1ccc(-c2ccc3nc(N)ncc3c2)cc1)c1cc(Cl)c(OCCCl)c(C#N)c1 [Compound A177]	500 to 2000
CC(C)(c1ccc(OCc2ccnc(NS(C)(=O)=O)n2)cc1)c1cc(Cl)c(OCCCCl)c(C#N)c1 [Compound A181]	500 to 2000
CC(NC12CC(NS(C)(=O)=O)(C1)C2)c1ccc2c(ccn2-c2cc(Cl)c(OCCCl)c(C#N)c2)c1 (centres unmarked) [Compound A184]	> 2000
CS(=O)(=O)Nc1nccc(COc2ccc3c(ccn3-c3cc(Cl)c(OC4CCC4)c(C#N)c3)c2)n1 [Compound A189]	500 to 2000
CS(=O)(=O)N1CCC(CCOc2ccc3c(ccn3-c3cc(Cl)c(OCCCl)c(C#N)c3)c2)CC1 [Compound A190]	> 2000
CC(C)(c1ccc(-c2cnc3nc(NS(C)(=O)=O)ncc3c2)cc1)c1cc(Cl)c(OCCCl)c(C#N)c1 [Compound A192]	500 to 2000
CC(C)(c1ccc(-c2cnc3nc(NS(C)(=O)=O)cnc3c2)cc1)c1cc(Cl)c(OCCCl)c(C#N)c1 [Compound A195]	> 2000
CC(C)(c1ccc(-c2ccc3nc(NS(C)(=O)=O)nc(N4CCOCC4)c3c2)cc1)c1cc(Cl)c(OCCCl)c(C#N)c1 [Compound A196]	500 to 2000
CC(C)(c1ccc(-c2ccc3c(NS(C)(=O)=O)ncnc3c2)cc1)c1cc(Cl)c(OCCCl)c(C#N)c1 [Compound A197]	> 2000
CC(C)(c1ccc(-c2c[nH]c3nc(NS(C)(=O)=O)ncc23)cc1)c1cc(Cl)c(OCCCl)c(C#N)c1 [Compound A198]	500 to 2000
CC(C)(c1ccc(-c2cnc3c(NS(C)(=O)=O)nccc3c2)cc1)c1cc(Cl)c(OCCCl)c(C#N)c1 [Compound A199]	< 500
CS(=O)(=O)N1CCC(Oc2ccc3c(ccn3-c3cc(Cl)c(OCCCl)c(C#N)c3)c2)CC1 [Compound A200]	500 to 2000
CS(=O)(=O)N1CCCC1COc1ccc2c(ccn2-c2cc(Cl)c(OCCCl)c(C#N)c2)c1 (centres unmarked) [Compound A201]	> 2000
CS(=O)(=O)N1CCCC(Oc2ccc3c(ccn3-c3cc(Cl)c(OCCCl)c(C#N)c3)c2)CC1 (centres unmarked) [Compound A202]	> 2000
CC(C)(c1ccc(-c2n[nH]c3nc(NS(C)(=O)=O)ncc23)cc1)c1cc(Cl)c(OCCCl)c(C#N)c1 [Compound A203]	500 to 2000
CS(=O)(=O)N1CCC[C@@H](COc2ccc3c(ccn3-c3cc(Cl)c(OCCCl)c(C#N)c3)c2)C1 [Compound A204]	> 2000
CS(=O)(=O)N1CCO[C@@H](COc2ccc3c(ccn3-c3cc(Cl)c(OCCCl)c(C#N)c3)c2)C1 [Compound A205]	> 2000
CS(=O)(=O)N1CCN(CCOc2ccc3c(ccn3-c3cc(Cl)c(OCCCl)c(C#N)c3)c2)CC1 [Compound A206]	500 to 2000
CS(=O)(=O)N[C@@H]1CC[C@@H](Oc2ccc3c(ccn3-c3cc(Cl)c(OCCCl)c(C#N)c3)c2)C1 [Compound A207]	500 to 2000
CS(=O)(=O)N[C@H]1CC[C@@H](COc2ccc3c(ccn3-c3cc(Cl)c(OCCCl)c(C#N)c3)c2)CC1 [Compound A208]	> 2000
CS(=O)(=O)NC[C@H]1CC[C@H](COc2ccc3c(ccn3-c3cc(Cl)c(OCCCl)c(C#N)c3)c2)CC1 [Compound A209]	500 to 2000

SMILES	IC50 [nM]
CS(=O)(=O)N1CCC(COc2ccc3c(ccn3-c3cc(Cl)c(OCCCl)c(C#N)c3)c2)C1 (centres unmarked) [Compound A210]	500 to 2000
CC(C)(c1ccc(-c2c[nH]c3c(NS(C)(=O)=O)ncnc23)cc1)c1cc(Cl)c(OCCCl)c(C#N)c1 [Compound A211]	> 2000
CC(C)(c1ccc(-c2cnc3c(c2)CCC(NS(C)(=O)=O)C3)cc1)c1cc(Cl)c(OCCCl)c(C#N)c1 (centres unmarked) [Compound A214]	500 to 2000
CC(C)(c1ccc(-c2cnc3c(c2)CCCC3NS(C)(=O)=O)cc1)c1cc(Cl)c(OCCCl)c(C#N)c1 (centres unmarked) [Compound A216]	> 2000
CS(=O)(=O)Nc1nccc(COc2ccc3c(-c4cc(Cl)c(OCCCl)c(C#N)c4)c[nH]c3c2)n1 [Compound A218]	> 2000
CC(C)(c1ccc(-c2cnc3nc(NS(C)(=O)=O)cnc3c2)cc1)c1cc(Cl)c(OCCCl)c(C#N)c1 [Compound A219]	500 to 2000
CS(=O)(=O)NC1CCN(CCOc2ccc3c(ccn3-c3cc(Cl)c(OCCCl)c(C#N)c3)c2)CC1 [Compound A220]	> 2000
CS(=O)(=O)N1C[C@H]2C[C@@H](Oc3ccc4c(ccn4-c4cc(Cl)c(OCCCl)c(C#N)c4)c3)C[C@H]2C1 [Compound A221]	500 to 2000
CS(=O)(=O)N1CCC2(CCC2Oc2ccc3c(ccn3-c3cc(Cl)c(OCCCl)c(C#N)c3)c2)CC1 (centres unmarked) [Compound A222]	500 to 2000
CS(=O)(=O)N1CC2CC(Oc3ccc4c(ccn4-c4cc(Cl)c(OCCCl)c(C#N)c4)c3)CC2C1 (centres unmarked) [Compound A223]	500 to 2000
CS(=O)(=O)N1CCC[C@@H]1COc1ccc2c(ccn2-c2cc(Cl)c(OCCCl)c(C#N)c2)c1 [Compound A224]	500 to 2000
CS(=O)(=O)N1CC(CCOc2ccc3c(ccn3-c3cc(Cl)c(OCCCl)c(C#N)c3)c2)C1 [Compound A225]	500 to 2000
CS(=O)(=O)N[C@H]1CC[C@@H](Oc2ccc3c(ccn3-c3cc(Cl)c(OCCCl)c(C#N)c3)c2)C1 [Compound A226]	500 to 2000
CS(=O)(=O)NC1(CCOc2ccc3c(ccn3-c3cc(Cl)c(OCCCl)c(C#N)c3)c2)CC1 [Compound A227]	500 to 2000
CC(C)(c1ccc(-c2ccc3c(c2)OCCN3S(C)(=O)=O)cc1)c1cc(Cl)c(OCCCl)c(C#N)c1 [Compound A228]	> 2000
CC(C)(c1ccc(-c2cnc3c(c2)OCCN3S(C)(=O)=O)cc1)c1cc(Cl)c(OCCCl)c(C#N)c1 [Compound A229]	500 to 2000
CC(C)(c1ccc(-c2ccc3c(c2)OCC(CNS(C)(=O)=O)O3)cc1)c1cc(Cl)c(OCCCl)c(C#N)c1 (centres unmarked) [Compound A230]	> 2000
CS(=O)(=O)N[C@@H]1CC[C@H](Oc2ccc3c(ccn3-c3cc(Cl)c(OCCCl)c(C#N)c3)c2)C1 [Compound A233]	500 to 2000
CS(=O)(=O)N1CC2(CCN(Cc3ccc4c(ccn4-c4cc(Cl)c(OCCCl)c(C#N)c4)c3)CC2)C1 [Compound A235]	> 2000
CS(=O)(=O)NCC1CCN(Cc2ccc3c(ccn3-c3cc(Cl)c(OCCCl)c(C#N)c3)c2)CC1 [Compound A236]	> 2000
CN(C1CCN(Cc2ccc3c(ccn3-c3cc(Cl)c(OCCCl)c(C#N)c3)c2)CC1)S(C)(=O)=O [Compound A237]	> 2000
CC1(NS(C)(=O)=O)CCN(Cc2ccc3c(ccn3-c3cc(Cl)c(OCCCl)c(C#N)c3)c2)CC1 [Compound A238]	> 2000
CC(C)(c1ccc(OCc2ccnc(NS(C)(=O)=O)n2)cc1)c1cc(F)c(N2CC3(CCC3)C2)c(C#N)c1 [Compound A240, N-(4-((4-(2-(3-cyano-5-fluoro-4-(2-azaspiro[3.3]heptan-2-yl)phenyl)propan-2-yl)phenoxy)methyl)pyrimidin-2-yl)methanesulfonamide]	> 2000
